In paper PMC9865890, “N-Derivatives of (Z)-Methyl 3-(4-Oxo-2-thioxothiazolidin-5-ylidene)methyl)-1H-indole-2-carboxylates as Antimicrobial Agents—In Silico and In Vitro Evaluation” (Pharmaceuticals, 2023):
In brackets after ≈: the same amount, converted by molar mass. Like-named read-outs stand apart in the source and are kept apart here.

How the values were obtained:
[1] = test system: Bacillus cereus (clinical isolate); assay: Antibacterial microdilution (MIC/MBC); assay type: cell-based; conditions: B.c. (B. cereus)
Protocol: (§1) The synthesized compounds (Table 1) were evaluated for their antibacterial activity against a panel of eight species using a microdilution method with ampicillin and streptomycin as reference drugs. […] The order of activity can be presented as: 8 > 11 > 2 > 1 > 12 > 3 > 17 > 7 > 5 > 13 > 14 > 16 > 9 > 4 = 6 > 15 > 10. […] Cloacae. […] The most sensitive bacteria appeared to be En. cloacae, while E. coli was the most resistant one, followed by M. flavus.
(§2) The following Gram-negative bacteria: Escherichia coli (ATCC 35210), Enterobacter cloacae (clinical isolate), Salmonella typhimurium (ATCC 13311), as well as Gram-positive bacteria: Listeria monocytogenes (NCTC 7973), Bacillus cereus (clinical isolate), and Staphylococcus aureus (ATCC 6538) were used. The organisms were obtained from the Mycological Laboratory, Department of Plant Physiology, Institute for Biological Research “Siniša Stankovic”, Belgrade, Serbia. The minimum inhibitory (MIC) and minimum bactericidal (MBC) concentrations were determined by the modified microdilution method, as previously reported.

[2] = test system: Enterobacter cloacae (clinical isolate); assay: Antibacterial microdilution (MIC/MBC); assay type: cell-based; conditions: Enterobacter cloacae, En.cl (En. cloacae); for MIC: read-out: MIC
Protocol: as §1, §2

[3] = test system: Escherichia coli (ATCC 35210); assay: Antibacterial microdilution (MIC/MBC); assay type: cell-based; conditions: Escherichia coli, ATCC35210, E. coli; for MIC: read-out: MIC
Protocol: as §1, §2

[4] = test system: Listeria monocytogenes (NCTC 7973); assay: Antibacterial microdilution (MIC/MBC); assay type: cell-based; conditions: Listeria monocytogenes, NCTC7973, L.m. (L. monocytogenes); for MIC: read-out: MIC
Protocol: as §1, §2

M. flavus = assay: Antibacterial microdilution (MIC/MBC); assay type: cell-based; conditions: Micrococcus flavus; M.f. (M. flavus)
Protocol: as §1, §2

P. aeruginosa = assay: Antibacterial microdilution (MIC/MBC); assay type: cell-based; conditions: Pseudomonas aeruginosa, P.a. (P. aeruginosa); for MIC: read-out: MIC
Protocol: as §1, §2

[5] = test system: Salmonella typhimurium (ATCC 13311); assay: Antibacterial microdilution (MIC/MBC); assay type: cell-based; conditions: S.t. (S. typhimurium)
Protocol: as §1, §2

[6] = test system: Staphylococcus aureus (ATCC 6538); assay: Antibacterial microdilution (MIC/MBC); assay type: cell-based; conditions: S.a. (S. aureus)
Protocol: as §1, §2

A. ochraceus = assay: Antifungal bioassay (MIC/MFC); assay type: cell-based; conditions: Aspergillus ochraceus, A.o. (A. ochraceus); for MIC: read-out: MIC
Protocol: (§3) For the antifungal bioassays, six fungi were used: […] The organisms were obtained from the Mycological Laboratory, Department of Plant Physiology, Institute for Biological Research “Siniša Stankovic”, Belgrade, Serbia. All experiments were performed in duplicate.

[7] = test system: Aspergillus fumigatus (ATCC 1022); assay: Antifungal bioassay (MIC/MFC); assay type: cell-based; conditions: ATCC1022, A.f. (A. fumigatus)
Protocol: as §3

[8] = test system: Aspergillus niger (ATCC 6275); assay: Antifungal bioassay (MIC/MFC); assay type: cell-based; conditions: ATCC6275, A.n. (A. niger)
Protocol: as §3

[9] = test system: Aspergillus versicolor (ATCC 11730); assay: Antifungal bioassay (MIC/MFC); assay type: cell-based; conditions: ATCC11730, A.v. (A. versicolor)
Protocol: as §3

P. ochrochloron = assay: Antifungal bioassay (MIC/MFC); assay type: cell-based; conditions: Penicillium ochrochloron; for MFC: P.o. (P. ochrochloron); for MIC: P.o. (P. ochrochloron; text: P. ochramensis), read-out: MIC
Protocol: as §3

[10] = test system: Penicillium funiculosum (ATCC 36839); assay: Antifungal bioassay (MIC/MFC); assay type: cell-based; conditions: Talaromyces funiculosus, ATCC36839; P.f. (P. funiculosum)
Protocol: as §3

[11] = test system: Trichoderma viride (IAM 5061); assay: Antifungal bioassay (MIC/MFC); assay type: cell-based; conditions: T.v. (T. viride)
Protocol: as §3

[12] = test system: Penicillium verrucosum var. cyclopium (food isolate); assay: Antifungal bioassay (MIC/MFC); assay type: cell-based
Protocol: For the antifungal bioassays, six fungi were used: Aspergillus niger (ATCC 6275), Aspergillus fumigatus (ATCC 1022), Aspergillus versicolor (ATCC 11730), Penicillium funiculosum (ATCC 36839), Trichoderma viride (IAM 5061), and Penicillium verrucosum var. cyclopium (food isolate). The organisms were obtained from the Mycological Laboratory, Department of Plant Physiology, Institute for Biological Research “Siniša Stankovic”, Belgrade, Serbia. All experiments were performed in duplicate.

[13] = Salmonella enterica, read-out: MIC
[14] = Staphylococcus aureus, ATCC6538
[15] = Staphylococcus aureus, ATCC6538, read-out: MIC
[16] = Trichoderma viride, IAM5061, read-out: MIC

Row | SMILES | MBC ([1]; Bacillus cereus) | MIC ([1]; Bacillus cereus, read-out: MIC) | MBC [2] | MIC [2] | MBC [3] | MIC [3] | MBC [4] | MIC [4] | MBC (M. flavus) | MIC (M. flavus) | MBC (P. aeruginosa) | MIC (P. aeruginosa) | MBC ([5]; Salmonella enterica) | MIC [5, 13] | MBC [6, 14] | MIC [6, 15] | MFC (A. ochraceus) | MIC (A. ochraceus) | MFC [7] | MIC [7] | other results
1 | CC1(C)S[C@@H]2[C@H](NC(=O)[C@H](N)c3ccccc3)C(=O)N2[C@H]1C(=O)O [Ampicillin, reference compound] | 25 µg/mL (≈ 71.5 µM) | 6 ± 3 µg/mL (≈ 17.2 µM) | 500 ± 100 µg/mL (≈ 1430 µM) | 250 ± 90 µg/mL (≈ 715 µM) | 200 µg/mL (≈ 572 µM) | 100 ± 50 µg/mL (≈ 286 µM) | 300 ± 30 µg/mL (≈ 859 µM) | 150 ± 30 µg/mL (≈ 429 µM) | 500 ± 100 µg/mL (≈ 1430 µM) | 250 ± 90 µg/mL (≈ 715 µM) | 500 ± 100 µg/mL (≈ 1430 µM) | 300 ± 30 µg/mL (≈ 859 µM) | 200 ± 9 µg/mL (≈ 572 µM) | 150 ± 30 µg/mL (≈ 429 µM) | 150 ± 50 µg/mL (≈ 429 µM) | 100 ± 50 µg/mL (≈ 286 µM) |  |  |  |  | 
2 | c1ccc(-c2ccc(C(c3ccccc3)n3ccnc3)cc2)cc1 (stereo not shown) [Bifonazole, reference compound] |  |  |  |  |  |  |  |  |  |  |  |  |  |  |  |  | 200 ± 10 µg/mL (≈ 644 µM) | 150 ± 50 µg/mL (≈ 483 µM) | 200 ± 10 µg/mL (≈ 644 µM) | 150 ± 50 µg/mL (≈ 483 µM) | MFC [8]: 200 ± 10 µg/mL (≈ 644 µM); MIC [8]: 150 ± 50 µg/mL (≈ 483 µM); MFC [9]: 200 ± 10 µg/mL (≈ 644 µM); MIC [9]: 100 ± 2 µg/mL (≈ 322 µM); MFC (P. ochrochloron): 250 ± 50 µg/mL (≈ 805 µM); MIC (P. ochrochloron): 200 ± 10 µg/mL (≈ 644 µM); MFC [10]: 250 ± 50 µg/mL (≈ 805 µM); MIC [10]: 200 ± 10 µg/mL (≈ 644 µM); MFC ([11]; Trichoderma viride, IAM5061): 200 ± 10 µg/mL (≈ 644 µM); MIC [11, 16]: 150 ± 50 µg/mL (≈ 483 µM); MFC ([12]; P.v.c. (P. cyclpoium var verucosum), read-out: MFC): 200 ± 10 µg/mL (≈ 644 µM); MIC ([12]; P.v.c. (P. cyclpoium var verucosum), read-out: MIC): 100 ± 9 µg/mL (≈ 322 µM)
3 | COC(=O)c1[nH]c2ccccc2c1/C=C1\SC(=S)N(c2cccc(O)c2)C1=O [Compound 3, (Z)-methyl 3-((3-(3-hydroxyphenyl)-4-oxo-2-thioxothiazolidin-5-ylidene)methyl)-1H-indole-2-carboxylate] | 30 ± 10 µg/mL (≈ 73.1 µM) | 15 µg/mL (≈ 36.5 µM) | 30 ± 10 µg/mL (≈ 73.1 µM) | 15 ± 9 µg/mL (≈ 36.5 µM) | 30 ± 10 µg/mL (≈ 73.1 µM) | 22 ± 5 µg/mL (≈ 53.6 µM) | 60 ± 6 µg/mL (≈ 146 µM) | 30 ± 10 µg/mL (≈ 73.1 µM) | 60 ± 6 µg/mL (≈ 146 µM) | 45 ± 3 µg/mL (≈ 110 µM) | 60 ± 6 µg/mL (≈ 146 µM) | 30 ± 10 µg/mL (≈ 73.1 µM) | 30 ± 10 µg/mL (≈ 73.1 µM) | 15 µg/mL (≈ 36.5 µM) | 30 ± 10 µg/mL (≈ 73.1 µM) | 15 µg/mL (≈ 36.5 µM) | 15 ± 3 µg/mL (≈ 36.5 µM) | 8 ± 0.6 µg/mL (≈ 19.5 µM) | 60 ± 6 µg/mL (≈ 146 µM) | 30 ± 10 µg/mL (≈ 73.1 µM) | MIC [1]: 15 ± 9 µg/mL (≈ 36.5 µM); MIC [5]: 15 ± 9 µg/mL (≈ 36.5 µM); MIC [6]: 15 ± 9 µg/mL (≈ 36.5 µM); MFC [9]: 15 ± 3 µg/mL (≈ 36.5 µM); MIC [9]: 8 ± 0.6 µg/mL (≈ 19.5 µM); MFC (P. ochrochloron): 15 ± 3 µg/mL (≈ 36.5 µM); MIC (P. ochrochloron): 8 ± 0.6 µg/mL (≈ 19.5 µM); MFC [10]: 15 ± 3 µg/mL (≈ 36.5 µM); MIC [10]: 8 ± 0.6 µg/mL (≈ 19.5 µM); MIC [11]: 4 ± 1 µg/mL (≈ 9.74 µM); MFC ([11]; Trichoderma viride, IAM5061): 8 ± 0.6 µg/mL (≈ 19.5 µM); MIC [11, 16]: 4 µg/mL (≈ 9.74 µM); MFC [12]: 30 ± 10 µg/mL (≈ 73.1 µM); MIC [12]: 15 ± 3 µg/mL (≈ 36.5 µM); melting point: 245 to 247 °C
